Data reported in US4262013A, “Mevalonolactone derivatives and process for the preparation thereof” (Sankyo Company Limited, priority 1977, dated 1981).
Where two headings read alike, the source gives them in different places.

Columns and labels:
[1] = molecular target: T1, 3-hydroxy-3-methylglutaryl coenzyme A reductase (Rattus norvegicus, UniProt P51639); experiment: Assay Method A: inhibitory activity to cholesterol biosynthesis in vitro, 50% inhibition of the enzyme activity (method of Knauss et al); format: biochemical
T1 construct: from tissue
T1 sequence (P51639 1-887): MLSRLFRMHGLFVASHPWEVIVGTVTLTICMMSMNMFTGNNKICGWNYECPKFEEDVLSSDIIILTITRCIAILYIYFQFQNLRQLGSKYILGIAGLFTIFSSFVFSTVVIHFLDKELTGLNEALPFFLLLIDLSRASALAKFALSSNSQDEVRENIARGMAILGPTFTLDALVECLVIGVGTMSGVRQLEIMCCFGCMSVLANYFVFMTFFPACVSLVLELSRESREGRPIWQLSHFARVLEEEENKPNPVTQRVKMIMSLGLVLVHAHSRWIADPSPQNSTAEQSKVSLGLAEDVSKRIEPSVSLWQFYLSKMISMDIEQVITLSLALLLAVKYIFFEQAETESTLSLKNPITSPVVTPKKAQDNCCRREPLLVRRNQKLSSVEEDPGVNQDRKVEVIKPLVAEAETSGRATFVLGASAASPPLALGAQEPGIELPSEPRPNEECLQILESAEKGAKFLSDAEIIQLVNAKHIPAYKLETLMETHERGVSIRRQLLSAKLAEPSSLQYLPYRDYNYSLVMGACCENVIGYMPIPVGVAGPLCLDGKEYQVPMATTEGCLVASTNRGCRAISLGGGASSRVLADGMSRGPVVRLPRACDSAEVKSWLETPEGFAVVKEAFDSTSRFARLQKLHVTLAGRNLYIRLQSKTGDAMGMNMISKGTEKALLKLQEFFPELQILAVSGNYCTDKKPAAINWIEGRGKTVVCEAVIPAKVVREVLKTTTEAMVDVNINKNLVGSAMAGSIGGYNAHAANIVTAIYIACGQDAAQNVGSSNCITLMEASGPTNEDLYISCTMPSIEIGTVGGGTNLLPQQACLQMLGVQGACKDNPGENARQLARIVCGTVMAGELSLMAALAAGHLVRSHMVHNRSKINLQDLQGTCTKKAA

[2] = tested on: cholesterol biosynthesis in L-cells of mice (929); experiment: Assay Method B: inhibition of 14C-cholesterol biosynthesis from 14C-acetic acid in L-cells of mice (929) (method of Kandutsch et al); format: cell-based; details: Mus musculus, mole concentration for 50% inhibition of cholesterol biosynthesis, read-out: ID50 (M) Assay Method B
Excerpt: The inhibitory activity of these compounds to cholesterol biosynthesis was further evaluated according to the method described in A. A. Kandutsch et al, Journal of Biological Chemistry, 248, 8408 (1973) by measuring the amount of ^14 C-cholesterol biosynthesized from ^14 C-acetic acid using L-cells of mice (929), and the activity was expressed by the mole concentration [I50 (M)] for 50% inhibition of cholesterol biosynthesis (Assay Method B).

[3] = Assay Method A, in vitro, mole concentration for 50% inhibition of the enzyme activity, read-out: ID50 (M) Assay Method A

Row | IC50 [1, 3] [M] | Compound | IC50 [2] [M] | IC50 [1] [M]
1 | 6.6e-05 | CC1(O)CC(=O)OC(CCc2ccc(O)cc2)C1 (stereo not drawn) [F, 3-Hydroxy-3-methyl-7-(p-hydroxyphenyl)-5-heptanolide] | – | –
2 | 8.6e-06 | CC1(O)CC(=O)OC(C=Cc2ccc(OCc3ccccc3)cc2)C1 (stereo not drawn) [R, 3-Hydroxy-3-methyl-7-(p-benzyloxyphenyl)-6-hepten-5-olide] | 1.3e-05 | –
3 | 4.7e-05 | CC1(O)CC(=O)OC(CCc2ccccc2OCc2ccccc2)C1Br (stereo not drawn) [K, 3-Hydroxy-3-methyl-4-bromo-7-(o-benzyloxyphenyl)-5-heptanolide] | 8.8e-05 | –
4 | 4.5e-05 | CC1(O)CC(=O)OC(CCc2ccc(Cl)cc2)C1 (stereo not drawn) [N, 3-Hydroxy-3-methyl-7-(p-chlorophenyl)-5-heptanolide] | 3e-05 | –
5 | 6.4e-05 | CC1C(C=Cc2ccccc2)OC(=O)CC1(C)O (stereo not drawn) [Q, 3-Hydroxy-3,4-dimethyl-7-phenyl-6-hepten-5-olide] | – | –
6 | 0.0001 | CC1(O)CC(=O)OC(c2ccc(-c3ccccc3)cc2)C1 (stereo not drawn) [B, 3-Hydroxy-3-methyl-5-(4-biphenylyl)-5-pentanolide] | 0.00016 | –
7 | – | CCOC(=O)C(C)(C)Oc1ccc(Cl)cc1 [Clofibrate, reference compound] | 8e-05 | 0.001
8 | 0.00036 | CC1(O)CC(=O)OC(CCc2ccccc2)C1 (stereo not drawn) [C, 3-Hydroxy-3-methyl-7-phenyl-5-heptanolide] | 4.2e-05 | –
9 | 6.2e-05 | CC1(O)CC(=O)OC(c2ccc(OCc3ccccc3)cc2)C1 (stereo not drawn) [A, 3-Hydroxy-3-methyl-5-(p-benzyloxyphenyl)-5-pentanolide] | 0.00013 | –
10 | – | Cc1cc(OCc2ccccc2)cc(C)c1CCC1OC(=O)CC(C)(O)C1Br (stereo not drawn) [V, 3-Hydroxy-3-methyl-4-bromo-7-(p-benzyloxy-o,o'-dimethylphenyl)-5-heptanolide] | 1e-05 | –
11 | 3.3e-05 | CC1(O)CC(=O)OC(CCc2ccccc2OCc2ccccc2)C1 (stereo not drawn) [I, 3-Hydroxy-3-methyl-7-(o-benzyloxyphenyl)-5-heptanolide] | 5e-05 | –
12 | 7.1e-05 | CC1(O)CC(=O)OC(C=Cc2cccc(OCc3ccccc3)c2)C1 (stereo not drawn) [S, 3-Hydroxy-3-methyl-7-(m-benzyloxyphenyl)-6-hepten-5-olide] | 0.00012 | –
13 | 6.3e-05 | CC1(O)CC(=O)OC(CCc2ccc(Cl)cc2)C1Br (stereo not drawn) [O, 3-Hydroxy-3-methyl-4-bromo-7-(p-chlorophenyl)-5-heptanolide] | – | –
14 | 0.0001 | CC1(O)CC(=O)OC(CCc2ccccc2)C1Br (stereo not drawn) [Compound D, 3-Hydroxy-3-methyl-4-bromo-7-phenyl-5-heptanolide] | – | –
15 | – | CC1(O)CC(=O)OC(CCc2ccc(OCc3ccc(Cl)cc3)cc2)C1 (stereo not drawn) [M, 3-Hydroxy-3-methyl-7-[p-(p-chlorobenzyloxy)phenyl]-5-heptanolide] | 1.9e-05 | –
16 | 6.3e-05 | COc1ccc(CCC2CC(C)(O)CC(=O)O2)cc1 (stereo not drawn) [P, 3-Hydroxy-3-methyl-7-(p-methoxyphenyl)-5-heptanolide] | – | –
17 | 6.7e-06 | CC1(O)CC(=O)OC(CCCc2ccc(OCc3ccccc3)cc2)C1Br (stereo not drawn) [Z, 3-Hydroxy-3-methyl-4-bromo-8-(p-benzyloxyphenyl)-5-octanolide] | 1.2e-05 | –
18 | 6.7e-05 | CC1C(CCc2ccccc2)OC(=O)CC1(C)O (stereo not drawn) [E, 3-Hydroxy-3,4-dimethyl-7-phenyl-5-heptanolide] | – | –
19 | 3.8e-06 | Cc1cc(OCc2ccccc2)cc(C)c1CCC1CC(C)(O)CC(=O)O1 (stereo not drawn) [U, 3-Hydroxy-3-methyl-7-(p-benzyloxy-o,o'-dimethylphenyl)-5-heptanolide] | 5.4e-06 | –
20 | 4.2e-06 | CC1(O)CC(=O)OC(CCc2ccc(OCc3ccccc3)cc2)C1 (stereo not drawn) [H, 3-Hydroxy-3-methyl-7-(p-benzyloxyphenyl)-5-heptanolide] | 6e-06 | –
21 | 4e-06 | CC1(O)CC(=O)OC(CCCc2ccc(OCc3ccccc3)cc2)C1 (stereo not drawn) [Y, 3-Hydroxy-3-methyl-8-(p-benzyloxyphenyl)-5-octanolide] | 7e-06 | –
22 | 5.6e-06 | CC1(O)CC(=O)OC(CCc2ccc(OCc3ccccc3)cc2)C1Br (stereo not drawn) [J, 3-Hydroxy-3-methyl-4-bromo-7-(p-benzyloxyphenyl)-5-heptanolide] | 3e-05 | –
23 | 3.9e-06 | Cc1cc(OC(=O)c2ccccc2)cc(C)c1CCC1CC(C)(O)CC(=O)O1 (stereo not drawn) [X, 3-Hydroxy-3-methyl-7-(p-benzoyloxy-o,o'-dimethylphenyl)-5-heptanolide] | 6.5e-06 | –
24 | 2.1e-05 | COc1cc(CCC2CC(C)(O)CC(=O)O2)ccc1OCc1ccccc1 (stereo not drawn) [T, 3-Hydroxy-3-methyl-7-(p-benzyloxy-m-methoxyphenyl)-5-heptanolide] | 1.1e-05 | –
25 | – | CC1(O)CC(=O)OC(CCc2ccc(OCc3ccc(F)cc3)cc2)C1 (stereo not drawn) [L, 3-Hydroxy-3-methyl-7-[p-(p-fluorobenzyloxy)phenyl]-5-heptanolide] | 5e-05 | –

Row | Compound | IC50 [1, 3] [M] | IC50 [2] [M] | IC50 [1] [M]
26 | CC(=O)OC1(C)CC(=O)OC(CCc2ccc(OCc3ccccc3)cc2)C1 (stereo not drawn) [G, 3-Acetoxy-3-methyl-7-(p-benzyloxyphenyl)-5-heptanolide] | 4.5e-05 | 3.1e-05 | –
27 | COc1cc(CCC2CC(C)(O)CC(=O)O2)ccc1OC(C)=O (stereo not drawn) [W, 3-Hydroxy-3-methyl-7-(p-acetoxy-m-methoxyphenyl)-5-heptanolide] | 4.5e-05 | 8.3e-05 | –
